# Measurements: patent US9187458B2, “Cyanoquinoline derivatives” (Tianjin Hemay Bio-Tech Co., LTD., priority 2010, dated 2015)
# How the values were obtained:
# Assay type in all cases: cell-based
# LoVo cells = assay: LoVo Cell Growth Inhibition Test (MTT Assay); conditions: Homo sapiens, 72 h incubation
# Description: LoVo Cell Growth Inhibition Test (MTT Assay)
# 1. Cell strains: LoVo (human intestinal cancer cell strains);
# (§1) 1. A plate (10 cm) of cells in logarithmic growth phase normally cultured was collected;
# (§2) 2. The culture solution was sucked out. The plate was washed with 5 ml of PBS 1-2 times;
# (§3) 3. PBS was sucked out. 2 ml of 0.25% pancreatin was added to infiltrate the cells for 1 min;
# 4. The pancreatin was sucked out. The culture plate was placed in an incubator. Digestion was carried out for about 4 min at 37° C.;
# (§4) 5. 4 ml of complete culture solution was added in the culture plate to stop the digestion. The cells were carefully scoured with micropipette (1 ml) to give a uniform cell suspension. The suspension was implanted into a 96-well cell culture plate by 3000-4000 cells/100 μl per well. The culture plate was incubated overnight under 5% CO2 at 37° C. In day 2, 100 μl of culture solution comprising a compound was added into each well, and further incubated for 72 h under 5% CO2 at 37° C.
# (§5) 6. The culture solution was sucked out;
# 7. 100 μl of serum-free culture solution containing 0.5 mg/ml MTT was added in each well, and incubated for 4 h;
# (§6) 8. The culture solution was carefully sucked out;
# (§7) 9. 100 μl of DMSO was added in each well and vibrated to dissolve;
# (§8) 10. OD values were determined at 490 nM.
# (§9) 1. Calculation of Relative Inhibition Ratio The inhibition ratio of a compound on cell growth=(PC−n)/(PC−NC)×100%
# (§10) IC50: Concentration of a compound where inhibition ratio was 50%. IC50 values were fitted with Origin7.5.
# A549 cells = assay: A549 Cell Growth Inhibition Test (MTT Assay); conditions: Homo sapiens, 72 h incubation
# Description: A549 Cell Growth Inhibition Test (MTT Assay)
# 1. Cell strains: […] (human lung caner cell strains);
# Culture medium: 90% F12K+10% FBS;
# as §1
# 2. The culture solution was sucked out. Tthe plate was washed with 5 ml of PBS 1-2 times;
# as §3
# (§11) 4. The pancreatin was sucked out. The culture plate was placed in an incubator. Digestion was carried out for about 2 min at 37° C.;
# as §4, with “added to” for “added in”, “by 2500” for “by 3000-4000”, “added in” for “added into”
# as §5
# (§12) 7. 100 μl of serum-free culture solution containing 0.5 mg/ml MTT was added in each well, and incubated for 3 h;
# as §6, §7, §8, §9, §10
# AsPC-1 cells = assay: AsPC-1 Cell Growth Inhibition Test (MTT Assay); conditions: Homo sapiens, ASPC1, 72 h incubation
# Description: AsPC-1 Cell Growth Inhibition Test (MTT Assay)
# Cell strains: AsPC-1 (human pancreatic cancer cell strains);
# as §1, §2
# 3. PBS was sucked out. 1.5 ml of 0.25% pancreatin was added to infiltrate the cells for 1 min;
# 4. The pancreatin was sucked out. The culture plate was placed in an incubator. Digestion was carried out for about 7.5 min at 37° C.;
# as §4, with “5. 4.5” for “5. 4”, “added to” for “added in”, “by 8000” for “by 3000-4000”, “added in” for “added into”
# as §5, §12, §6
# 9. 100 μl of DMSO was added in each welland vibrated to dissolve;
# as §8, §9, §10
# NCI-H460 cells = assay: NCI-H460 Cell Growth Inhibition Test (MTT Assay); conditions: Homo sapiens, 72 h incubation
# Description: NCI-H460 Cell Growth Inhibition Test (MTT Assay)
# 1. Cell strains: NCI-H460 (human large cell lung cancer cell strains);
# as §1, §2, §3, §11
# as §4, with “added to” for “added in”, “by 2500” for “by 3000-4000”, “added in” for “added into”
# as §5, §12, §6, §7, §8, §9, §10
# Sk-Br-3 cells = assay: Sk-Br-3 Cell Growth Inhibition Test (SRB Assay); conditions: Homo sapiens, 91 h incubation
# Description: Sk-Br-3 Cell Growth Inhibition Test (SRB Assay)
# 1. Cell strains: Sk-Br-3 (human breast cancer cell strains);
# 2. SRB: available from Sigmaaldrich, goods number: S9012, lot number: 047K3751. SRB was reserved at the room temperature. 0.4% (w/v) of working solution was formulated with 1% of glacial acetic acid. The solution was reserved at 4° C.; anti-tumor compounds; DMSO
# Culture medium: 90% DMEM+10% FBS;
# 1. A plate (10 cm) of cells in logarithmic growth phase normally cultured was collected. The culture solution was sucked out. The plate was washed with 5 mL of PBS 1-2 times;
# 2. PBS was sucked out. […] of 0.25% pancreatin was added to infiltrate the cells for 30 s;
# 3. The pancreatin was sucked out. The culture plate was placed in an incubator. Digestion was carried out for about 1.5-2 min at 37° C.;
# 4. 4 mL of complete culture solution was added to the culture plate to stop the digestion. The cells were carefully scoured with micropipette (1 ml) to give a uniform single cell suspension;
# 5. Cell suspension was counted. The suspension was diluted to 1×10^5/ml. The resulting suspension was developed uniformly on a plate by 10000 cells/100 μl per well. The culture plate was incubated overnight under 5% CO2 at 37° C. In day 2, 100 μl of culture solution comprising a compound was added in each well, and further incubated for 91 h under 5% CO2 at 37° C.
# 6. The culture solution was sucked out. 100 uL of TCA fixed cells which were diluted to 10% were added to each well. The plate was kept in a refrigerator for 1 h at 4° C.
# 7. TCA stationary liquid was sucked out. Each well was washed with 150 μL of ddH2O five times;
# 8. After the stationary liquid was cleansed, the plate was dried in the air at the room temperature;
# 9. 60 μL of SRB staining solution was added in each well. The well was stained for 15 min at the room temperature;
# 10. The SRB staining solution was sucked out. Each well was washed with 150 μL of 1% glacial acetic acid five times;
# 11. After the SRB staining solution was cleansed, the plate was dried in the air at the room temperature;
# 12. 100 μL of 10 mM Tris was added in each well. The plate was vibrated to dissolve out SRB;
# 13. OD values were determined at 570 nM.
# To: OD values of the starting content of cells when the cells were developed on a plate;
# PC: OD values of cells after normal growth in control wells without a compound;
# Ti: OD values of cells after growth in test wells with a compound;
# NC: Background OD values of blank well without a compound and cells
# Therefore: Ratio of cells in test wells to normal wells (% of control cell growth)=(Ti−To)/(PC−To)×100%
# Ratio GI50 was concentration of a compound at the point of 50%.
# Therefore: Ratio of killed cells to inoculated cells (% of killed cells)=(Ti−To)/(To−NC)×100%
# LC50 was concentration point of a compound when half of the starting inoculated concentration was reached.
# Concentration of a compound at this point is defined as TGI (total growth inhibition).
smiles,measurement,setting,value
"CN(C)C/C=C/C(=O)Nc1cc2c(Nc3ccc(OCc4ccc(C(C)(C)C)cc4)c(Cl)c3)c(C#N)cnc2cc1OC1CCOC1 (centres unmarked) [Example 14, (E)-N-(4-(4-(4-TERT-BUTYLBENZYLOXY)-3-CHLOROPHENYLAMINO)-3-CYANO-7-(TETRAHYDROFURAN-3-YL-OXY)QUINOLIN-6-YL)-4-(DIMETHYLAMINO)-BUT-2-ENAMIDE]",IC50,LoVo cells,1300 nM
same,IC50,A549 cells,1500 nM
same,IC50,AsPC-1 cells,1400 nM
same,IC50,NCI-H460 cells,940 nM
same,GI50,Sk-Br-3 cells,924 nM
